Measurements from US20170045529A1, “METHODS OF MEASURING ANTIGEN-SPECIFIC T CELLS” (ImmusanT, Inc., priority 2014, published 2017).
Non-standard residues stand in square brackets, D forms with d. pGlu = O=C1CC[C@@H](C(=O)O)N1

Legend:
Format in all cases: cell-based, human
[1] = tested on: whole blood; experiment: Whole blood IFN-γ release to peptide pools and individual peptides, MAGPIX multiplex bead assay (Example 3); conditions: 10 uM
[2] = tested on: whole blood; experiment: Whole blood IL-2 release to peptide pools and individual peptides, MAGPIX multiplex bead assay (Example 3); conditions: 10 uM
[3] = tested on: whole blood; experiment: Whole blood IP-10 release to peptide pools and individual peptides, MAGPIX multiplex bead assay (Example 3); conditions: Table 10C, 10 uM
[4] = Subject 1 (HLA-DQ 2.5, 8), day 0 of oral challenge
[5] = Subject 1 (HLA-DQ 2.5, 8), day 6 of oral challenge
[6] = Subject 2 (HLA-DQ 2.5, 8), day 0 of oral challenge
[7] = Subject 2 (HLA-DQ 2.5, 8), day 6 of oral challenge
[8] = Subject 6 (HLA-DQ 2.5), day 0 of oral challenge
[9] = Subject 6 (HLA-DQ 2.5), day 6 of oral challenge
[10] = Subject 7 (HLA-DQ 2.5, 8), day 0 of oral challenge
[11] = Subject 7 (HLA-DQ 2.5, 8), day 6 of oral challenge
[12] = Subject 1, day 0 since commencing oral challenge
[13] = Subject 1, day 6 since commencing oral challenge
[14] = Subject 2, day 0 since commencing oral challenge
[15] = Subject 2, day 6 since commencing oral challenge
[16] = Subject 6, day 0 since commencing oral challenge
[17] = Subject 6, day 6 since commencing oral challenge
[18] = Subject 7, day 0 since commencing oral challenge
[19] = Subject 7, day 6 since commencing oral challenge

## (pE)LQPFPQPELPYPQPQ-NH2 ([pGlu]LQPFPQPELPYPQPQ-NH2; SMILES CC(C)C[C@H](NC(=O)[C@@H]1CCC(=O)N1)C(=O)N[C@@H](CCC(N)=O)C(=O)N1CCC[C@H]1C(=O)N[C@@H](Cc1ccccc1)C(=O)N1CCC[C@H]1C(=O)N[C@@H](CCC(N)=O)C(=O)N1CCC[C@H]1C(=O)N[C@@H](CCC(=O)O)C(=O)N[C@@H](CC(C)C)C(=O)N1CCC[C@H]1C(=O)N[C@@H](Cc1ccc(O)cc1)C(=O)N1CCC[C@H]1C(=O)N[C@@H](CCC(N)=O)C(=O)N1CCC[C@H]1C(=O)N[C@@H](CCC(N)=O)C(N)=O)
[1]; [4]
  Whole blood IFNg release, Concentration: 39 pg/mL
  Whole blood IFNg release, Fold-change over medium only: 0.71
[1]; [5]
  Whole blood IFNg release, Concentration: 55 pg/mL
  Whole blood IFNg release, Fold-change over medium only: 0.84
[1]; [6]
  Whole blood IFNg release, Concentration: 4.1 pg/mL
  Whole blood IFNg release, Fold-change over medium only: 1.06
[1]; [7]
  Whole blood IFNg release, Concentration: 13.9 pg/mL
  Whole blood IFNg release, Fold-change over medium only: 2.85
[1]; [8]
  Whole blood IFNg release, Concentration: 102 pg/mL
  Whole blood IFNg release, Fold-change over medium only: 1.05
[1]; [9]
  Whole blood IFNg release, Concentration: 200 pg/mL
  Whole blood IFNg release, Fold-change over medium only: 2.03
[1]; [10]
  Whole blood IFNg release, Concentration: 407 pg/mL
  Whole blood IFNg release, Fold-change over medium only: 1.71
[1]; [11]
  Whole blood IFNg release, Concentration: 194 pg/mL
  Whole blood IFNg release, Fold-change over medium only: 1.29
[2]; [4]
  Whole blood IL-2 release, Concentration: 3.2 pg/mL
  Whole blood IL-2 release, Fold-change over medium only: 1.00
[2]; [5]
  Whole blood IL-2 release, Concentration: 3.2 pg/mL
  Whole blood IL-2 release, Fold-change over medium only: 1.00
[2]; [6]
  Whole blood IL-2 release, Concentration: 3.2 pg/mL
  Whole blood IL-2 release, Fold-change over medium only: 1.00
[2]; [7]
  Whole blood IL-2 release, Concentration: 12.2 pg/mL
  Whole blood IL-2 release, Fold-change over medium only: 3.82
[2]; [8]
  Whole blood IL-2 release, Concentration: 12.5 pg/mL
  Whole blood IL-2 release, Fold-change over medium only: 2.52
[2]; [9]
  Whole blood IL-2 release, Concentration: 88.5 pg/mL
  Whole blood IL-2 release, Fold-change over medium only: 20.88
[2]; [10]
  Whole blood IL-2 release, Concentration: 144.4 pg/mL
  Whole blood IL-2 release, Fold-change over medium only: 2.30
[2]; [11]
  Whole blood IL-2 release, Concentration: 71.2 pg/mL
  Whole blood IL-2 release, Fold-change over medium only: 1.69
[3]; [12]
  Whole blood IP-10 release, Concentration: 201 pg/mL
  Whole blood IP-10 release, Fold-change over medium only: 0.76
[3]; [13]
  Whole blood IP-10 release, Concentration: 384 pg/mL
  Whole blood IP-10 release, Fold-change over medium only: 1.15
[3]; [14]
  Whole blood IP-10 release, Concentration: 320 pg/mL
  Whole blood IP-10 release, Fold-change over medium only: 1.20
[3]; [15]
  Whole blood IP-10 release, Concentration: 1844 pg/mL
  Whole blood IP-10 release, Fold-change over medium only: 5.90
[3]; [16]
  Whole blood IP-10 release, Concentration: 1616 pg/mL
  Whole blood IP-10 release, Fold-change over medium only: 5.83
[3]; [17]
  Whole blood IP-10 release, Concentration: 10000 pg/mL
  Whole blood IP-10 release, Fold-change over medium only: 49.76
[3]; [18]
  Whole blood IP-10 release, Concentration: 977 pg/mL
  Whole blood IP-10 release, Fold-change over medium only: 1.32
[3]; [19]
  Whole blood IP-10 release, Concentration: 3293 pg/mL
  Whole blood IP-10 release, Fold-change over medium only: 3.69

## (pE)PEQPIPEQPQPYPQQ-NH2 ([pGlu]PEQPIPEQPQPYPQQ-NH2; SMILES CC[C@H](C)[C@H](NC(=O)[C@@H]1CCCN1C(=O)[C@H](CCC(N)=O)NC(=O)[C@H](CCC(=O)O)NC(=O)[C@@H]1CCCN1C(=O)[C@@H]1CCC(=O)N1)C(=O)N1CCC[C@H]1C(=O)N[C@@H](CCC(=O)O)C(=O)N[C@@H](CCC(N)=O)C(=O)N1CCC[C@H]1C(=O)N[C@@H](CCC(N)=O)C(=O)N1CCC[C@H]1C(=O)N[C@@H](Cc1ccc(O)cc1)C(=O)N1CCC[C@H]1C(=O)N[C@@H](CCC(N)=O)C(=O)N[C@@H](CCC(N)=O)C(N)=O)
[1]; [4]
  Whole blood IFNg release, Concentration: 42 pg/mL
  Whole blood IFNg release, Fold-change over medium only: 0.76
[1]; [5]
  Whole blood IFNg release, Concentration: 72 pg/mL
  Whole blood IFNg release, Fold-change over medium only: 1.09
[1]; [6]
  Whole blood IFNg release, Concentration: 3.3 pg/mL
  Whole blood IFNg release, Fold-change over medium only: 0.85
[1]; [7]
  Whole blood IFNg release, Concentration: 8.6 pg/mL
  Whole blood IFNg release, Fold-change over medium only: 1.77
[1]; [8]
  Whole blood IFNg release, Concentration: 96 pg/mL
  Whole blood IFNg release, Fold-change over medium only: 0.99
[1]; [9]
  Whole blood IFNg release, Concentration: 278 pg/mL
  Whole blood IFNg release, Fold-change over medium only: 2.84
[1]; [10]
  Whole blood IFNg release, Concentration: 170 pg/mL
  Whole blood IFNg release, Fold-change over medium only: 0.71
[1]; [11]
  Whole blood IFNg release, Concentration: 102 pg/mL
  Whole blood IFNg release, Fold-change over medium only: 0.68
[2]; [4]
  Whole blood IL-2 release, Concentration: 3.2 pg/mL
  Whole blood IL-2 release, Fold-change over medium only: 1.00
[2]; [5]
  Whole blood IL-2 release, Concentration: 3.2 pg/mL
  Whole blood IL-2 release, Fold-change over medium only: 1.00
[2]; [6]
  Whole blood IL-2 release, Concentration: 3.2 pg/mL
  Whole blood IL-2 release, Fold-change over medium only: 1.00
[2]; [7]
  Whole blood IL-2 release, Concentration: 22.4 pg/mL
  Whole blood IL-2 release, Fold-change over medium only: 7.00
[2]; [8]
  Whole blood IL-2 release, Concentration: 23.3 pg/mL
  Whole blood IL-2 release, Fold-change over medium only: 4.71
[2]; [9]
  Whole blood IL-2 release, Concentration: 134.3 pg/mL
  Whole blood IL-2 release, Fold-change over medium only: 31.67
[2]; [10]
  Whole blood IL-2 release, Concentration: 106.1 pg/mL
  Whole blood IL-2 release, Fold-change over medium only: 1.69
[2]; [11]
  Whole blood IL-2 release, Concentration: 27.8 pg/mL
  Whole blood IL-2 release, Fold-change over medium only: 0.66
[3]; [12]
  Whole blood IP-10 release, Concentration: 235 pg/mL
  Whole blood IP-10 release, Fold-change over medium only: 0.89
[3]; [13]
  Whole blood IP-10 release, Concentration: 325 pg/mL
  Whole blood IP-10 release, Fold-change over medium only: 0.97
[3]; [14]
  Whole blood IP-10 release, Concentration: 336 pg/mL
  Whole blood IP-10 release, Fold-change over medium only: 1.26
[3]; [15]
  Whole blood IP-10 release, Concentration: 1269 pg/mL
  Whole blood IP-10 release, Fold-change over medium only: 4.06
[3]; [16]
  Whole blood IP-10 release, Concentration: 3409 pg/mL
  Whole blood IP-10 release, Fold-change over medium only: 12.30
[3]; [17]
  Whole blood IP-10 release, Concentration: 10000 pg/mL
  Whole blood IP-10 release, Fold-change over medium only: 49.76
[3]; [18]
  Whole blood IP-10 release, Concentration: 713 pg/mL
  Whole blood IP-10 release, Fold-change over medium only: 0.96
[3]; [19]
  Whole blood IP-10 release, Concentration: 2549 pg/mL
  Whole blood IP-10 release, Fold-change over medium only: 2.86

## (pE)QPFPQPEQPFPWQP-NH2 ([pGlu]QPFPQPEQPFPWQP-NH2; SMILES NC(=O)CC[C@H](NC(=O)[C@H](Cc1c[nH]c2ccccc12)NC(=O)[C@@H]1CCCN1C(=O)[C@H](Cc1ccccc1)NC(=O)[C@@H]1CCCN1C(=O)[C@H](CCC(N)=O)NC(=O)[C@H](CCC(=O)O)NC(=O)[C@@H]1CCCN1C(=O)[C@H](CCC(N)=O)NC(=O)[C@@H]1CCCN1C(=O)[C@H](Cc1ccccc1)NC(=O)[C@@H]1CCCN1C(=O)[C@H](CCC(N)=O)NC(=O)[C@@H]1CCC(=O)N1)C(=O)N1CCC[C@H]1C(N)=O)
[1]; [4]
  Whole blood IFNg release, Concentration: 60 pg/mL
  Whole blood IFNg release, Fold-change over medium only: 1.09
[1]; [5]
  Whole blood IFNg release, Concentration: 62 pg/mL
  Whole blood IFNg release, Fold-change over medium only: 0.95
[1]; [6]
  Whole blood IFNg release, Concentration: 4.5 pg/mL
  Whole blood IFNg release, Fold-change over medium only: 1.19
[1]; [7]
  Whole blood IFNg release, Concentration: 6.4 pg/mL
  Whole blood IFNg release, Fold-change over medium only: 1.32
[1]; [8]
  Whole blood IFNg release, Concentration: 94 pg/mL
  Whole blood IFNg release, Fold-change over medium only: 0.98
[1]; [9]
  Whole blood IFNg release, Concentration: 258 pg/mL
  Whole blood IFNg release, Fold-change over medium only: 2.63
[1]; [10]
  Whole blood IFNg release, Concentration: 158 pg/mL
  Whole blood IFNg release, Fold-change over medium only: 0.66
[1]; [11]
  Whole blood IFNg release, Concentration: 150 pg/mL
  Whole blood IFNg release, Fold-change over medium only: 1.00
[2]; [4]
  Whole blood IL-2 release, Concentration: 3.2 pg/mL
  Whole blood IL-2 release, Fold-change over medium only: 1.00
[2]; [5]
  Whole blood IL-2 release, Concentration: 3.2 pg/mL
  Whole blood IL-2 release, Fold-change over medium only: 1.00
[2]; [6]
  Whole blood IL-2 release, Concentration: 3.2 pg/mL
  Whole blood IL-2 release, Fold-change over medium only: 1.00
[2]; [7]
  Whole blood IL-2 release, Concentration: 5.2 pg/mL
  Whole blood IL-2 release, Fold-change over medium only: 1.61
[2]; [8]
  Whole blood IL-2 release, Concentration: 17.9 pg/mL
  Whole blood IL-2 release, Fold-change over medium only: 3.62
[2]; [9]
  Whole blood IL-2 release, Concentration: 115.9 pg/mL
  Whole blood IL-2 release, Fold-change over medium only: 27.33
[2]; [10]
  Whole blood IL-2 release, Concentration: 41.4 pg/mL
  Whole blood IL-2 release, Fold-change over medium only: 0.66
[2]; [11]
  Whole blood IL-2 release, Concentration: 55.1 pg/mL
  Whole blood IL-2 release, Fold-change over medium only: 1.31
[3]; [12]
  Whole blood IP-10 release, Concentration: 218 pg/mL
  Whole blood IP-10 release, Fold-change over medium only: 0.82
[3]; [13]
  Whole blood IP-10 release, Concentration: 501 pg/mL
  Whole blood IP-10 release, Fold-change over medium only: 1.49
[3]; [14]
  Whole blood IP-10 release, Concentration: 376 pg/mL
  Whole blood IP-10 release, Fold-change over medium only: 1.42
[3]; [15]
  Whole blood IP-10 release, Concentration: 1140 pg/mL
  Whole blood IP-10 release, Fold-change over medium only: 3.65
[3]; [16]
  Whole blood IP-10 release, Concentration: 1934 pg/mL
  Whole blood IP-10 release, Fold-change over medium only: 6.98
[3]; [17]
  Whole blood IP-10 release, Concentration: 10000 pg/mL
  Whole blood IP-10 release, Fold-change over medium only: 49.76
[3]; [18]
  Whole blood IP-10 release, Concentration: 900 pg/mL
  Whole blood IP-10 release, Fold-change over medium only: 1.21
[3]; [19]
  Whole blood IP-10 release, Concentration: 10000 pg/mL
  Whole blood IP-10 release, Fold-change over medium only: 11.21
